Measured values: US9796671B2, “Aurora kinase inhibitors” (REGENTS OF THE UNIVERSITY OF MINNESOTA, priority 2012, dated 2017)

Assays:
A549 cells = test: Cell cycle analysis (flow cytometry); assay type: cell-based, human; conditions: A549, 48 hours
Experimental: (§1) Cells are plated in 60-mm plates and treated or not treated with Compound 1 for the indicated time. At each time point, cells are fixed in 70% ethanol and stored at −20° C. for 24 h. After staining, the cell cycle distribution or apoptosis is determined using a BD FACSCalibur Flow Cytometer (BD Biosciences, San Jose, Calif.). Aurora B inhibition leads to failure in cytokinesis and abnormal exit from mitosis, which could result in polyploidy cells, cell cycle arrest, and ultimately apoptosis. The ability to induce polyploidy cells was further examined in A549 cells treated or not treated with Compound 1. […] In addition, Compound 1 treatment for 48 hours caused an increase in the number of A549 and H520 cells occupying the G2/M phase. Moreover, exposure of these cells to Compound 1 for 72 hours induced apoptosis as measured by Annexin V/PI staining. For example, exposure to 5 μM Compound 1 induced 48% or 82% apoptosis in A549 cells and H520 cells, compared to 8% or 38% in untreated control cells, respectively.

H520 cells = test: Cell cycle analysis (flow cytometry); assay type: cell-based, human; conditions: H520, 48 hours
Experimental: as §1

O=C(/C=C/c1ccc2c(c1)OCO2)/C=C1/C(=O)Nc2ccccc21 [Compound 1]
number of cells occupying the G2/M phase (A549 cells): increase
number of cells occupying the G2/M phase (H520 cells): increase
